Experimental findings from patent publication US5688913A, “CS-1 peptidomimetics, compositions and methods of using the same” (Cytel Corporation, priority 1995, dated 1997) are described below.

Molecules are shown by their SMILES. Square brackets hold non-standard residues; d marks the D form. Peptide text beside a SMILES is read from it. * marks the point of attachment. Benzenesulfonyl = O=S(=O)(c1ccccc1)*; Acetyl(3-pyridyl) = O=C(Cc1cccnc1)*; Isonicotinoyl = O=C(c1ccncc1)*; Nicotinoyl = O=C(c1cccnc1)*; X19 = O=C(Cc1ccc(Br)cc1)*; Morpholide = C1CN(*)CCO1; PhAc = O=C(Cc1ccccc1)*; X14 = O=C(c1cc[nH]n1)*

Chain of VLA-4 (P13612 34-1032): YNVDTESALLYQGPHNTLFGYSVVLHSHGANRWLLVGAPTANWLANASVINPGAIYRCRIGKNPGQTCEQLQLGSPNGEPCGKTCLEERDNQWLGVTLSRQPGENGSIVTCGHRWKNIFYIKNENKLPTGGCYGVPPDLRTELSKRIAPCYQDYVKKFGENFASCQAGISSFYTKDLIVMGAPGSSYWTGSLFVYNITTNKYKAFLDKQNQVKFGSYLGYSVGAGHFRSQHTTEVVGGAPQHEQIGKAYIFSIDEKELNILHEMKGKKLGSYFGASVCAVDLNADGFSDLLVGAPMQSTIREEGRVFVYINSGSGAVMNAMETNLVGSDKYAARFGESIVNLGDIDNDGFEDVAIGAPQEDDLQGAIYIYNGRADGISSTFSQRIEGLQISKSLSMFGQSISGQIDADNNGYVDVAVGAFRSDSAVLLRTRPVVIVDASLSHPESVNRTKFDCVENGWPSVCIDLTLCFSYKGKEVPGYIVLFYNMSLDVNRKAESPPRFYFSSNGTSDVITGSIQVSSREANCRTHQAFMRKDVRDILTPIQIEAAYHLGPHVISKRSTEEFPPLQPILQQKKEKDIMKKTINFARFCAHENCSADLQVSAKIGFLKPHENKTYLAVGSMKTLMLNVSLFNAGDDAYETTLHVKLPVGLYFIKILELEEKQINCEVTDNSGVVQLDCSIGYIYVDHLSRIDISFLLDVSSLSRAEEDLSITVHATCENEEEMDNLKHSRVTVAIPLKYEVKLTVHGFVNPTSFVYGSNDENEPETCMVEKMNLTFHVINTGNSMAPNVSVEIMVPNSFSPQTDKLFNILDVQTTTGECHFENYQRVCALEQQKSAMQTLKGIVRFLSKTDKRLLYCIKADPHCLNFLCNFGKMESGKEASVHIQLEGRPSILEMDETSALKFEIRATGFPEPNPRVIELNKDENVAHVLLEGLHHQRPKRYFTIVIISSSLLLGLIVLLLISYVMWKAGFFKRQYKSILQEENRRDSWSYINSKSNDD
Chain of VLA-4 (P05556 21-798): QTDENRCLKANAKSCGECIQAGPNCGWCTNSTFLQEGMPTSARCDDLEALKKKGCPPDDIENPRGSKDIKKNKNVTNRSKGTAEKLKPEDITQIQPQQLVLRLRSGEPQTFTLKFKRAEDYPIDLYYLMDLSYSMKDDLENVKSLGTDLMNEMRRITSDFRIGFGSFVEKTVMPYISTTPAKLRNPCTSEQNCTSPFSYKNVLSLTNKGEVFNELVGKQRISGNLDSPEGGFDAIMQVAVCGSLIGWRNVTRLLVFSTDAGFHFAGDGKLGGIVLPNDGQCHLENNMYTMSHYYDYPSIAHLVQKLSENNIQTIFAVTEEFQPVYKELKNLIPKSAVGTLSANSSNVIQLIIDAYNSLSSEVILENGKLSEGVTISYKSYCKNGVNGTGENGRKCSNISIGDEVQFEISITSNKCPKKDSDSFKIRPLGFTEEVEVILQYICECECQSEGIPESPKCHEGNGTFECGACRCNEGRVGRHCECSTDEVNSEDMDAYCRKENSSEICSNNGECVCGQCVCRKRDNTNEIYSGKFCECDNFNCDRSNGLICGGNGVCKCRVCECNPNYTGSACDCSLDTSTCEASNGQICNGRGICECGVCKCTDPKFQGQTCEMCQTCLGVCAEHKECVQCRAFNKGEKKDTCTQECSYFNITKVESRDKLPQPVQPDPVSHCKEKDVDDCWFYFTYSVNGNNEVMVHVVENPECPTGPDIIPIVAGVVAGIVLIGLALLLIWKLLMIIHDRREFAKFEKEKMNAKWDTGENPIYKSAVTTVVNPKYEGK

The first assay addresses VLA-4 (Homo sapiens, UniProt P05556+P13612). The assay is described as follows: cell-based. It is filed as cell-based. Set-up: host or cells: Jurkat (human T lymphoblastic line).
Settings: not given
The protocol: Binding inhibition is measured here as a concentration of peptide that inhibits one-half the binding between a standard number of Jurkat cells and a standard amount of CS-1 peptide bound to the surface of a microtiter plate well. Those concentrations are conveniently expressed as IC50 values, smaller numbers indicating a lower concentration required to inhibit 50 percent binding and therefore greater potency. Further specifics of this assay are provided hereinafter.
Jurkat cells (ATCC TIB 152), a human T lymphoblastic line, labeled with ^51 chromium were used to assay in vitro binding inhibition provided by various peptides discussed herein.
The plates were prepared as follows: The 25-mer CS-1 peptide (SEQ ID NO:1) dissolved at 0.5-1 μg/ml in a buffer of 0.1M NaHCO3 at pH 9.5 that also contained 10 μg/ml of bovine serum albumin (BSA) or a conjugate of the CS-1 peptide linked to ovalbumin (CS-1-OVA) dissolved at 1-2.5 μg/ml in the same buffer was used as the substrate. Each well of the microtiter plates was coated with 50 μl of substrate or buffer alone for controls. The wells were permitted to dry out completely and were then rinsed twice with PBS at pH 7.4. Non-specific binding sites of each well were then blocked using 200 μl per well of RPMI/1 percent BSA for two hours at room temperature. Both solid phase-affixed substrates provided similar results.
Jurkat cells (3-5×10^6 cells) were placed into a 15 ml Falcon™ round-bottom tube with a cap. The tube was centrifuged, and the extra medium was then removed.
Two hundred microliters of a ^51 Cr labeling solution were added to the centrifuged cells and maintained in contact with the cells for 90-120 minutes in a warm room. This procedure typically provides about 50,000-100,000 cpm/well with about 80-100 percent cell viability. Longer contact times provide a greater amount of labeling but lower cell viability.
The labeled cells are washed with (i) complete medium, (ii) 1 mM EDTA/PBS and then (iii) RPM1/1 percent BSA free of serum components. The cells are centrifuged after each washing. The cells are finally resuspended in serum-free RPMI/1 percent BSA at a concentration of 1×10^6 viable cells/ml, which provides a concentration that is diluted by one-half in the assay.
Inhibitor peptides are prepared as stock solutions at 20 mg/ml in DMSO in 1.5 ml cryogenic screwcap vials, and were stored at -70° C. Using Flow™ round-bottom or V-bottom microtiter plates, the inhibitor peptides were prepared at twice the assay concentration in RPMI/1 percent BSA at 60 μl well.
Four initial dilutions were typically used.
The ^51 Cr-labeled cells (1×10^6 cells at 60 μl/well) were then admixed with the diluted peptide solutions. The admixtures were maintained at room temperature (about 22° C.) for 30 minutes.
One hundred microliters of each inhibitor peptide/cell admixture were transferred to the substrate-coated wells. This was done in triplicate for each dilution. The resulting plates were incubated for 30 minutes at 37° C. and then washed gently three times with RPMI/1 percent BSA at 200 μl/well. Binding was observed microscopically, particularly after the second wash.
The bound cells were then lysed by the addition of a 0.5 percent solution of sodium dodecylsulfate in water at 100 μ/l well. The resulting solutions were then processed for counting and calculation of IC50 values following usual procedures. Appropriate positive and negative controls were used with each plate so that the results of separate assays could be normalized and compared.
The data of Table 1 are so normalized.
Regarding `CC(C)C[C@H](NC(=O)Cc1ccc(Br)cc1)C(=O)N[C@@H](CC(=O)O)C(=O)N[C@@H](Cc1ccccc1)C(=O)N1CCC[C@@H]1C(N)=O` [X L D F p p-bromophenylacetyl amide] (X19-LDF[dP]-NH2), the “RELATIVE POTENCY (relative peptide inhibition of VLA-4 binding CS-1)” value was 3.
Turning to `CC(C)C[C@H](NS(=O)(=O)c1ccccc1)C(=O)N[C@@H](CC(=O)O)C(=O)N[C@@H](Cc1ccccc1)C(=O)N1CCC[C@@H]1C(N)=O` [X L D F p phenylsulfonyl amide] (Benzenesulfonyl-LDF[dP]-NH2), the “RELATIVE POTENCY (relative peptide inhibition of VLA-4 binding CS-1)” value turned out to be 0.
Consider `CC(C)C[C@H](NC(=O)c1cc[nH]n1)C(=O)N[C@@H](CC(=O)O)C(=O)N[C@@H](Cc1ccccc1)C(=O)N1CCC[C@@H]1C(N)=O` [X L D F p pyrazolecarbonyl amide] (X14-LDF[dP]-NH2; N-terminus assumed), for which the “RELATIVE POTENCY (relative peptide inhibition of VLA-4 binding CS-1)” value was determined as 35.
On to `CC(C)C[C@H](NC(=O)Cc1cccnc1)C(=O)N[C@@H](CC(=O)O)C(=O)N[C@@H](Cc1ccccc1)C(=O)N1CCC[C@@H]1C(N)=O` [X L D F p pyridine-3-acetyl amide] ({Acetyl(3-pyridyl)}-LDF[dP]-NH2), for which the “RELATIVE POTENCY (relative peptide inhibition of VLA-4 binding CS-1)” value turned out to be 469.
For the molecule `CC(C)C[C@H](NC(=O)c1cccnc1)C(=O)N[C@@H](CC(=O)O)C(=O)N[C@@H](Cc1ccccc1)C(=O)N1CCC[C@@H]1C(N)=O` [X L D F p pyridine-3-carbonyl amide] (Nicotinoyl-LDF[dP]-NH2), the “RELATIVE POTENCY (relative peptide inhibition of VLA-4 binding CS-1)” value is given as 201.
As for `CC(C)C[C@H](NC(=O)c1ccncc1)C(=O)N[C@@H](CC(=O)O)C(=O)N[C@@H](Cc1ccccc1)C(=O)N1CCC[C@@H]1C(N)=O` [X L D F p pyridine-4-carbonyl amide] (Isonicotinoyl-LDF[dP]-NH2), the “RELATIVE POTENCY (relative peptide inhibition of VLA-4 binding CS-1)” value was 656.
Same read-out and setting: next, `CC(C)C[C@H](NC(=O)c1cccc2ccccc12)C(=O)N[C@@H](CC(=O)O)C(=O)N[C@H](C(=O)N1CCC[C@@H]1C(N)=O)C(C)C` [X L D V p 1-naphthoyl amide]: 1; `Cc1cccc(C(=O)N[C@@H](CC(C)C)C(=O)N[C@@H](CC(=O)O)C(=O)N[C@H](C(=O)N2CCC[C@@H]2C(N)=O)C(C)C)c1C` [X L D V p 2,3-dimethylbenzoyl amide]: 9; `Cc1cccc(C)c1C(=O)N[C@@H](CC(C)C)C(=O)N[C@@H](CC(=O)O)C(=O)N[C@H](C(=O)N1CCC[C@@H]1C(N)=O)C(C)C` [X L D V p 2,6-dimethylbenzoyl amide]: 5.
With `CC(C)C[C@H](NC(=O)c1ccc2ccccc2c1)C(=O)N[C@@H](CC(=O)O)C(=O)N[C@H](C(=O)N1CCC[C@@H]1C(N)=O)C(C)C` [X L D V p 2-naphthoyl amide], the “RELATIVE POTENCY (relative peptide inhibition of VLA-4 binding CS-1)” value was 1.
Still for that read-out and setting: the value for `Cc1ccc(C(=O)N[C@@H](CC(C)C)C(=O)N[C@@H](CC(=O)O)C(=O)N[C@H](C(=O)N2CCC[C@@H]2C(N)=O)C(C)C)cc1C` [X L D V p 3,4-dimethylbenzoyl amide] was 8; that for `CCC(C)CC(=O)N[C@@H](CC(C)C)C(=O)N[C@@H](CC(=O)O)C(=O)N[C@H](C(=O)N1CCC[C@@H]1C(N)=O)C(C)C` (some centres unmarked) [X L D V p 3-methylvaleroyl amide] was 3; that for `CC(C)CCC(=O)N[C@@H](CC(C)C)C(=O)N[C@@H](CC(=O)O)C(=O)N[C@H](C(=O)N1CCC[C@@H]1C(N)=O)C(C)C` [X L D V p 4-methylvaleroyl amide] was 3.
`CC(C)C[C@H](NC(=O)C12CC3CC(CC(C3)C1)C2)C(=O)N[C@@H](CC(=O)O)C(=O)N[C@H](C(=O)N1CCC[C@@H]1C(N)=O)C(C)C` [X L D V p adamantanecarbonyl amide]: the “RELATIVE POTENCY (relative peptide inhibition of VLA-4 binding CS-1)” value came to 1.
In the case of `CC(C)C[C@H](NC(=O)C=Cc1ccccc1)C(=O)N[C@@H](CC(=O)O)C(=O)N[C@H](C(=O)N1CCC[C@@H]1C(N)=O)C(C)C` [X L D V p cinnamoyl amide], the “RELATIVE POTENCY (relative peptide inhibition of VLA-4 binding CS-1)” value was 1.
`CC(C)C[C@H](NC(=O)CC1CCCCC1)C(=O)N[C@@H](CC(=O)O)C(=O)N[C@H](C(=O)N1CCC[C@@H]1C(N)=O)C(C)C` [X L D V p cyclohexaneacetyl amide]: the “RELATIVE POTENCY (relative peptide inhibition of VLA-4 binding CS-1)” value was 2.
Turning to `CC(C)C[C@H](NC(=O)C1CCCCC1)C(=O)N[C@@H](CC(=O)O)C(=O)N[C@H](C(=O)N1CCC[C@@H]1C(N)=O)C(C)C` [X L D V p cyclohexanecarbonyl amide], the “RELATIVE POTENCY (relative peptide inhibition of VLA-4 binding CS-1)” value amounted to 5.
Regarding `CC(C)C[C@H](NC(=O)CCC1CCCCC1)C(=O)N[C@@H](CC(=O)O)C(=O)N[C@H](C(=O)N1CCC[C@@H]1C(N)=O)C(C)C` [X L D V p cyclohexanepropionyl amide], the “RELATIVE POTENCY (relative peptide inhibition of VLA-4 binding CS-1)” value is on record as 1.
As to `CC(C)C[C@H](NC(=O)CCc1ccccc1)C(=O)N[C@@H](CC(=O)O)C(=O)N[C@H](C(=O)N1CCC[C@@H]1C(N)=O)C(C)C` [X L D V p phenylpropionyl amide], the “RELATIVE POTENCY (relative peptide inhibition of VLA-4 binding CS-1)” value came out at 14.
In the case of `CC(C)C[C@@H](C(=O)N[C@@H](CC(=O)O)C(=O)N[C@H](C(=O)N1CCC[C@@H]1C(N)=O)C(C)C)N1C(=O)c2ccccc2C1=O` [X L D V p phthalimido amide], the “RELATIVE POTENCY (relative peptide inhibition of VLA-4 binding CS-1)” value worked out at 140.
On to `CC(C)C[C@H](NC(=O)c1ccccn1)C(=O)N[C@@H](CC(=O)O)C(=O)N[C@H](C(=O)N1CCC[C@@H]1C(N)=O)C(C)C` [X L D V p pyridine-2-carbonyl amide], for which the “RELATIVE POTENCY (relative peptide inhibition of VLA-4 binding CS-1)” value stood at 8.
Turning to `CC(C)C[C@H](NC(=O)c1cccnc1)C(=O)N[C@@H](CC(=O)O)C(=O)N[C@H](C(=O)N1CCC[C@@H]1C(N)=O)C(C)C` [X L D V p pyridine-3-carbonyl amide], the “RELATIVE POTENCY (relative peptide inhibition of VLA-4 binding CS-1)” value was found to be 71.

Still in this assay, the particulars now being: normalized IC50 relative to standard peptide of SEQ ID NO:3 (=1); about one-tenth or less of the standard is assigned zero.
On to `CC(C)C[C@H](NC(=O)Cc1ccccc1)C(=O)N[C@@H](CC(=O)O)C(=O)N[C@@H](Cc1ccccc1)C(N)=O` [X L D F phenylacetyl amide] (PhAc-Leu-Asp-Phe-NH2), for which the “RELATIVE POTENCY (relative peptide inhibition of VLA-4 binding CS-1)” value was found to be 1.
`CC(C)C[C@H](NC(=O)Cc1ccccc1)C(=O)N[C@@H](CC(=O)O)C(=O)NCC(=O)N1CCOCC1` [X L D G Z phenylacetyl morpholinamide] (PhAc-Leu-Asp-Gly-Morpholide): the “RELATIVE POTENCY (relative peptide inhibition of VLA-4 binding CS-1)” value stood at 9.
On to `CC(C)C[C@H](NC(=O)Cc1ccccc1)C(=O)N[C@@H](CC(=O)O)C(=O)N[C@@H](CC(C)C)C(=O)N1CCOCC1` [X L D L Z phenylacetyl morpholinamide] (PhAc-Leu-Asp-Leu-Morpholide), for which the “RELATIVE POTENCY (relative peptide inhibition of VLA-4 binding CS-1)” value came to 291.
For `CC(C)C[C@H](NC(=O)Cc1ccccc1)C(=O)N[C@@H](CC(=O)O)C(=O)N[C@@H](CO)C(=O)N1CCC[C@@H]1C(N)=O` [X L D S p phenylacetyl amide] (PhAc-LDS[dP]-NH2), the “RELATIVE POTENCY (relative peptide inhibition of VLA-4 binding CS-1)” value was 17.
For `CC(C)C[C@H](NC(=O)c1ccccc1)C(=O)N[C@@H](CC(=O)O)C(=O)N[C@H](C(=O)N1CCC[C@H]1C(N)=O)C(C)C` [X L D V P benzoyl amide], the “RELATIVE POTENCY (relative peptide inhibition of VLA-4 binding CS-1)” value is 37.
On to `CC(C)C[C@H](NC(=O)Cc1ccccc1)C(=O)N[C@@H](CC(=O)O)C(=O)N[C@H](C(=O)N1CCC[C@@H]1C(N)=O)C(C)C` [X L D V p phenylacetyl amide, N-phenylacetyl-Leu-Asp-Val-D-Pro-NH2], for which the “RELATIVE POTENCY (relative peptide inhibition of VLA-4 binding CS-1)” value is given as 106.

The same assay, now with this note: normalized IC50 relative to standard peptide of SEQ ID NO:3 (=1); about one-tenth or less of the standard is assigned zero; listed as X L D V p benzoyl amide.
`CC(C)C[C@H](NC(=O)c1ccccc1)C(=O)N[C@@H](CC(=O)O)C(=O)N[C@H](C(=O)N1CCC[C@H]1C(N)=O)C(C)C` [X L D V P benzoyl amide]: the “RELATIVE POTENCY (relative peptide inhibition of VLA-4 binding CS-1)” value is listed as 20.
